Source: patent EP4678643A1, “KRAS INHIBITOR COMPOUND, PHARMACEUTICAL COMPOSITION THEREOF, AND USE THEREOF” (Sunshine Lake Pharma Co., Ltd., priority 2023, dated 2024)
pIC50: −log10 of the molar value.

Columns and labels:
[1] = tested on: pERK in HPAC cells (KRAS p.G12D); assay: Inhibitory effect on intracellular pERK by In-Cell Western assay, HPAC; format: cell-based; settings: Homo sapiens, pERK inhibition, compound incubation 1 h, read-out: HPAC, IC50 (nM) KRASp.G12D
Procedure: (§1) 1. Determination of Inhibitory Effect on Intracellular pERK by In-Cell Western Assay
(§2) (1) On the first day, the following cells were revived and cultured with the corresponding culture medium and incubated at 37 °C, 5% CO2 until confluence.
(§3) (2) On the third day, the culture medium was removed, the cells were rinsed once with DPBS, 2 mL of TrypLE™ trypsin was added for digestion, and the cells were placed at room temperature until the cells detached. (3) 5 mL fresh culture medium was added to resuspend cells to terminate the digestion, and the cells were gently pipetted and centrifuged at 1000 rpm for 5 minutes at room temperature. (4) The supernatant was removed, and 5 mL fresh culture medium was added to resuspend the cells and count cells. (5) The cells were plated in a 384-well plate with appropriate cell concentration by adjusting with complete culture medium and incubated at 37 °C, 5% CO2 for overnight. (6) 200 nL of the prepared serial dilution compound (DMSO final concentration was 0.5%) was added and incubated at 37 °C, CO2 for 3 h (HPAC cell lines for 1 h). (7) The cells were fixed. (8) The cells were washed twice with PBS. (9) The blocking solution was added and the cells were incubated at room temperature for 1 h. (10) The blocking solution was removed, and the primary antibody (phospho-ERK Rabbit mAb + GAPDH (D4C6R) Mouse mAb) was added and the cells were incubated at 4 °C for overnight. (11) The cells were washed twice with PBST (PBS + 0.05% Tween 20) for 2 minutes each time. (12) PBST was removed and secondary antibody (IRDye 800CW Goat anti-Rabbit IgG (H+L) + IRDye 680RD Goat anti Mouse IgG (H+L)) was added and incubated away from light at room temperature. (14) Secondary antibody was discarded and the cell was washed twice with PBST, 2 minutes each time. (15) 384-well plate was inverted and centrifuged at 1000 rpm at room temperature for 1 minute, and the 384-well plate was scanned with Odyssey CLx. (16) Data analysis: • a) Assay stability check was peformed by using DMSO and reference control data: [formula] […]

[2] = tested on: pERK in MKN1 cells (KRAS WTdep); assay: Inhibitory effect on intracellular pERK by In-Cell Western assay, MKN1; format: cell-based; settings: Homo sapiens, MKN-1, pERK inhibition, compound incubation 3 h
Procedure: as §1, §2
(§4) (2) On the third day, the culture medium was removed, the cells were rinsed once with DPBS, 2 mL of TrypLE™ trypsin was added for digestion, and the cells were placed at room temperature until the cells detached. (3) 5 mL fresh culture medium was added to resuspend cells to terminate the digestion, and the cells were gently pipetted and centrifuged at 1000 rpm for 5 minutes at room temperature. (4) The supernatant was removed, and 5 mL fresh culture medium was added to resuspend the cells and count cells. (5) The cells were plated in a 384-well plate with appropriate cell concentration by adjusting with complete culture medium and incubated at 37 °C, 5% CO2 for overnight. (6) 200 nL of the prepared serial dilution compound (DMSO final concentration was 0.5%) was added and incubated at 37 °C, CO2 for 3 h (HPAC cell lines for 1 h). (7) The cells were fixed. (8) The cells were washed twice with PBS. (9) The blocking solution was added and the cells were incubated at room temperature for 1 h. (10) The blocking solution was removed, and the primary antibody (phospho-ERK Rabbit mAb + GAPDH (D4C6R) Mouse mAb) was added and the cells were incubated at 4 °C for overnight. (11) The cells were washed twice with PBST (PBS + 0.05% Tween 20) for 2 minutes each time. (12) PBST was removed and secondary antibody (IRDye 800CW Goat anti-Rabbit IgG (H+L) + IRDye 680RD Goat anti Mouse IgG (H+L)) was added and incubated away from light at room temperature. (14) Secondary antibody was discarded and the cell was washed twice with PBST, 2 minutes each time. (15) 384-well plate was inverted and centrifuged at 1000 rpm at room temperature for 1 minute, and the 384-well plate was scanned with Odyssey CLx. (16) Data analysis: • a) Assay stability check was peformed by using DMSO and reference control data: [formula] [formula] • b) nonlinear fitting of Compound IC50: Y = Bottom + (Top−Bottom)/(1+10^(∧)((LogIC50−X)×HillSlope)). [formula]

[3] = tested on: pERK in H358 cells (KRAS p.G12C); assay: Inhibitory effect on intracellular pERK by In-Cell Western assay, H358; format: cell-based; settings: Homo sapiens, NCI-H358, pERK inhibition, compound incubation 3 h
Procedure: as §1, §2, §4

[4] = tested on: pERK in AGS cells (KRAS G12D); assay: Inhibitory effect on intracellular pERK by In-Cell Western assay, AGS; format: cell-based; settings: Homo sapiens, AGS, 3 h, pERK inhibition, compound incubation 3 h, read-out: AGS, IC50 (nM) KRAS p.G12D
Procedure: as §1, §2
(2) On the third day, the culture medium was removed, the cells were rinsed once with DPBS, 2 mL of TrypLE™ trypsin was added for digestion, and the cells were placed at room temperature until the cells detached. (3) 5 mL fresh culture medium was added to resuspend cells to terminate the digestion, and the cells were gently pipetted and centrifuged at 1000 rpm for 5 minutes at room temperature. (4) The supernatant was removed, and 5 mL fresh culture medium was added to resuspend the cells and count cells. (5) The cells were plated in a 384-well plate with appropriate cell concentration by adjusting with complete culture medium and incubated at 37 °C, 5% CO2 for overnight. (6) 200 nL of the prepared serial dilution compound (DMSO final concentration was 0.5%) was added and incubated at 37 °C, CO2 for 3 h (HPAC cell lines for 1 h). (7) The cells were fixed. (8) The cells were washed twice with PBS. (9) The blocking solution was added and the cells were incubated at room temperature for 1 h. (10) The blocking solution was removed, and the primary antibody (phospho-ERK Rabbit mAb + GAPDH (D4C6R) Mouse mAb) was added and the cells were incubated at 4 °C for overnight. (11) The cells were washed twice with PBST (PBS + 0.05% Tween 20) for 2 minutes each time. (12) PBST was removed and secondary antibody (IRDye 800CW Goat anti-Rabbit IgG (H+L) + IRDye 680RD Goat anti Mouse IgG (H+L)) was added and incubated away from light at room temperature. (14) Secondary antibody was discarded and the cell was washed twice with PBST, 2 minutes each time. (15) 384-well plate was inverted and centrifuged at 1000 rpm at room temperature for 1 minute, and the 384-well plate was scanned with Odyssey CLx.

[5] = tested on: pERK in NCI-H727 cells (KRAS p.G12V); assay: Inhibitory effect on intracellular pERK by In-Cell Western assay, NCI-H727; format: cell-based; settings: Homo sapiens, pERK inhibition, compound incubation 3 h
Procedure: as §1, §2, §3

KRAS G12D-GTP & SOS1 = KRAS G12D-GTP & SOS1 (Homo sapiens, UniProt P01116, G12D); assay: KRAS G12D/SOS1 Binding Assay (HTRF); settings: competitive binding, 665/615 nm ratio
Chain of KRAS G12D-GTP & SOS1 (P01116 1-188 isoform P01116-2 G12D): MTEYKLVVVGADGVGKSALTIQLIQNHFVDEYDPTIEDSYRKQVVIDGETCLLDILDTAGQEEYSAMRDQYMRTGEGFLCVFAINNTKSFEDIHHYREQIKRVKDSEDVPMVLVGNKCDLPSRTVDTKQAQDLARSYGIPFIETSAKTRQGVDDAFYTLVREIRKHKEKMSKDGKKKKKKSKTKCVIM
Text: 3. KRAS G12D/SOS1 Binding Assay

KRAS G12D-GTP & cRAF = KRAS G12D-GTP & cRAF (Homo sapiens, UniProt P01116, G12D); assay: KRAS G12D/cRAF Binding Assay (HTRF); settings: competitive binding, 665/615 nm ratio
Chain of KRAS G12D-GTP & cRAF (P01116 1-188 isoform P01116-2 G12D): as above
Text: 2. KRAS G12D/cRAF Binding Assay

[6] = tested on: pERK in HCT 116 cells (KRAS p.G13D); assay: Inhibitory effect on intracellular pERK by In-Cell Western assay, HCT 116; format: cell-based; settings: Homo sapiens, pERK inhibition, compound incubation 3 h
Procedure: as §1, §2, §4

[7] = tested on: pERK in A549 cells (KRAS p.G12S); assay: Inhibitory effect on intracellular pERK by In-Cell Western assay, A549; format: cell-based; settings: Homo sapiens, pERK inhibition, compound incubation 3 h
Procedure: as §1, §2, §4

SMILES	IC50 [2] [nM]	IC50 [3] [nM]	IC50 [4] [nM]	other results
CC#Cc1nc(-c2cc(O)cc3ccc(F)c(CC)c23)c(F)c2nc(OCC34CCCN3CC(F)C4)nc(N3CCCOCC3)c12 (stereo not drawn) [Compound 2]	6.4	2	2.2	IC50 [1]: 1.6 nM; IC50 [5]: 4.8 nM; pIC50 (KRAS G12D-GTP & SOS1): 7.68; pIC50 (KRAS G12D-GTP & cRAF): 7.86
CCC#Cc1nc(-c2cc(O)cc3ccc(F)c(CC)c23)c(F)c2nc(OC[C@@]34CCCN3C[C@H](F)C4)nc(N3CCCOCC3)c12 [Compound 4]			7.5	
C#Cc1c(F)ccc2cc(O)cc(-c3nc(C#CCOC4CCC4)c4c(N5CCCOCC5)nc(OC[C@@]56CCCN5C[C@H](F)C6)nc4c3F)c12 [Compound 5]			8.6	
C#Cc1c(F)ccc2cc(O)cc(-c3nc(C#C)c4c(N5CCCOCC5)nc(OC[C@@]56CCCN5C[C@H](F)C6)nc4c3F)c12 [Compound 7]	3.3	1.3	0.6	IC50 [6]: 11.6 nM; IC50 [7]: 5.7 nM
C#Cc1nc(-c2cc(O)cc3ccc(F)c(CC)c23)c(F)c2nc(OC[C@@]34CCCN3C[C@H](F)C4)nc(N3CCCOCC3)c12 [Compound 8]			7.1	
C#Cc1nc(-c2cc(O)cc3cccc(Cl)c23)c(F)c2nc(OC[C@@]34CCCN3C[C@H](F)C4)nc(N3CCCOCC3)c12 [Compound 9]			17.2	
C#Cc1c(F)ccc2cc(O)cc(-c3nc(C#C)c4c(N5CCCOCC5)nc(OCC56CC(=C)CN5CC(=C)C6)nc4c3F)c12 [Compound 10]	1.6	0.7	0.8	IC50 [6]: 6.2 nM; IC50 [7]: 1.4 nM
C#Cc1c(F)ccc2cc(O)cc(-c3nc(C#CC)c4c(N5CCCOCC5)nc(OCC56CCCN5CCC6)nc4c3F)c12 [Compound 11]	7.4	2	2.6	IC50 [6]: 28.6 nM; IC50 [7]: 20.2 nM
C#Cc1c(F)ccc2cc(O)cc(-c3nc(C#CC)c4c(N5CCCOCC5)nc(OC[C@@H]5CCCN5C)nc4c3F)c12 [Compound 12]			5.8	
C#Cc1c(F)ccc2cc(O)cc(-c3nc(C#CC)c4c(N5CCCOCC5)nc(OCC56CC(=C)CN5CC(=C)C6)nc4c3F)c12 [Compound 14]			1.2	
C#Cc1c(F)ccc2cc(O)cc(-c3nc(C#CC)c4c(N5CCCOCC5)nc(OCC56CCCN5CC(F)(F)C6)nc4c3F)c12 (stereo not drawn) [Compound 15]			15	
C#Cc1c(F)ccc2cc(O)cc(-c3nc(C#CC)c4c(N5CCCOCC5)nc(OC[C@@H]5C[C@@H](F)CN5C)nc4c3F)c12 [Compound 16]			8.1	
